Data reported in the kinase profiling compilation of Christmann-Franck et al. (2016).
Where “and” joins values, the source holds several entries; their conditions need not be identical. Equal values may be shown once.

Key:
Test in all cases: radiometric filter-binding kinase assay, Kinase HotSpot
Conditions in all cases: compound 0.5 µM; ATP 10 µM
CAMK2G (human) = CAMK2G (human) (UniProt Q13555)
BRSK1 (human) = BRSK1 (human) (UniProt Q8TDC3)
BMX (human) = BMX (human) (UniProt P51813)
EPHB2 (human) = EPHB2 (human) (UniProt P29323)
Sequence of EPHB2 (human) (P29323 whole entry, looked up): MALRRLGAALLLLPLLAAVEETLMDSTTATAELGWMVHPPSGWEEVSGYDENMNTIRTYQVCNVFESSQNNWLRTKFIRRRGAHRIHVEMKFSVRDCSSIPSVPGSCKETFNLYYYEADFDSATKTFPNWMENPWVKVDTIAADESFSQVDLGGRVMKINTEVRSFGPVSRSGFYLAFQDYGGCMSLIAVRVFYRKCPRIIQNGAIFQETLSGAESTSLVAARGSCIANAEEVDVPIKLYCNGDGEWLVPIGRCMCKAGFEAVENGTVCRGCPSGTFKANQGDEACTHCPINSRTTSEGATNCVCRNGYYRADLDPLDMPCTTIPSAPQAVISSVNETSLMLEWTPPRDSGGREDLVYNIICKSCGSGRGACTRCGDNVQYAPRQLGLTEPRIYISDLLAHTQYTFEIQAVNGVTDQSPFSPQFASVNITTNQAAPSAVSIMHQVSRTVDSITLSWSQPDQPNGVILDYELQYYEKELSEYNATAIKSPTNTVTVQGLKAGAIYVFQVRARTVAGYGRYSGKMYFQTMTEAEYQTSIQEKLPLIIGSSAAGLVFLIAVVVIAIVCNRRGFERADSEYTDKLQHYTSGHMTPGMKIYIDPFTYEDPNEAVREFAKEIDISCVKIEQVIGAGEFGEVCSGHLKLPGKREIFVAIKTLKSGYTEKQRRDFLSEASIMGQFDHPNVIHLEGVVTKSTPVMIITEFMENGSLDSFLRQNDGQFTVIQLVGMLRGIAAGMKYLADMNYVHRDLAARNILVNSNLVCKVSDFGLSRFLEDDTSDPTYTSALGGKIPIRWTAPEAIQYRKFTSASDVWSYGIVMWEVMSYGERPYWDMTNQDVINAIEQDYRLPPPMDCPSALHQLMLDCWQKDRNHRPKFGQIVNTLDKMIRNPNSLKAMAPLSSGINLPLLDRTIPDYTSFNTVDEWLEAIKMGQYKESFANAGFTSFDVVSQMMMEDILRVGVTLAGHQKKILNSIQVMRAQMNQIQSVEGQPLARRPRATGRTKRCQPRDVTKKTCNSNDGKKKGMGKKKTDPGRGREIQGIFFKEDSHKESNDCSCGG

FYN (human) = FYN (human) (UniProt P06241)
PRKCE (human) = PRKCE (human) (UniProt Q02156)
AURKA (human) = AURKA (human) (UniProt O14965)
ABL2 (human) = ABL2 (human) (UniProt P42684)
AURKB (human) = AURKB (human) (UniProt Q96GD4)
DSTYK (human) = DSTYK (human) (UniProt Q6XUX3)
Sequence of DSTYK (human) (Q6XUX3 whole entry, looked up): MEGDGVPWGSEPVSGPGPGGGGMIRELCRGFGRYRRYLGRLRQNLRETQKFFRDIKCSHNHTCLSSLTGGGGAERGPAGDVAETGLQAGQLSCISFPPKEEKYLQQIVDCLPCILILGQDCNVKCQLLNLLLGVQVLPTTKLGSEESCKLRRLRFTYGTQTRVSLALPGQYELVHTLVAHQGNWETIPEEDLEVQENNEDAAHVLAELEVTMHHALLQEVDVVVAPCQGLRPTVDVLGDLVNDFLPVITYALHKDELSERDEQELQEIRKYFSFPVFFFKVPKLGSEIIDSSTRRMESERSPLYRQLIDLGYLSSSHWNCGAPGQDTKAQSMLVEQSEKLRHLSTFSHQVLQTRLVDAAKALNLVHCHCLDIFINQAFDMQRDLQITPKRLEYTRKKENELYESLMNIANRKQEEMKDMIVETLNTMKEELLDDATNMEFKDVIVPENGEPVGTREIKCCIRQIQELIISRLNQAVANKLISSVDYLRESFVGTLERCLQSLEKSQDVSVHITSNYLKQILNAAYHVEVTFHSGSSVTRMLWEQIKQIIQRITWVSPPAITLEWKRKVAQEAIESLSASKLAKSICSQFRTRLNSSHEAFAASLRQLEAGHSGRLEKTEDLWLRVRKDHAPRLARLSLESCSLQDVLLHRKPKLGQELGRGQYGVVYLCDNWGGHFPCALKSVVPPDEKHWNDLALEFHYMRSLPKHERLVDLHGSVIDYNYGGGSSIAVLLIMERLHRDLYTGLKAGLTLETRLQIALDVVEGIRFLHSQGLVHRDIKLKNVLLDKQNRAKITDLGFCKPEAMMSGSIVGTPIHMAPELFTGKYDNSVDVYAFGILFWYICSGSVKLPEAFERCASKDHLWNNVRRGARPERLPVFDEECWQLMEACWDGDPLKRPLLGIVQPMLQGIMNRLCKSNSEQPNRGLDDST

CDK1 CCNA2 (human) = CDK1 CCNA2 (human) (UniProt P06493+P20248)
DYRK3 (human) = DYRK3 (human) (UniProt O43781)
PRKG1 (human) = PRKG1 (human) (UniProt Q13976)
PAK1 (human) = PAK1 (human) (UniProt Q13153)
MST4 (human) = MST4 (human) (UniProt Q9P289)
MINK1 (human) = MINK1 (human) (UniProt Q8N4C8)
DAPK3 (human) = DAPK3 (human) (UniProt O43293)
Sequence of DAPK3 (human) (O43293 whole entry, looked up): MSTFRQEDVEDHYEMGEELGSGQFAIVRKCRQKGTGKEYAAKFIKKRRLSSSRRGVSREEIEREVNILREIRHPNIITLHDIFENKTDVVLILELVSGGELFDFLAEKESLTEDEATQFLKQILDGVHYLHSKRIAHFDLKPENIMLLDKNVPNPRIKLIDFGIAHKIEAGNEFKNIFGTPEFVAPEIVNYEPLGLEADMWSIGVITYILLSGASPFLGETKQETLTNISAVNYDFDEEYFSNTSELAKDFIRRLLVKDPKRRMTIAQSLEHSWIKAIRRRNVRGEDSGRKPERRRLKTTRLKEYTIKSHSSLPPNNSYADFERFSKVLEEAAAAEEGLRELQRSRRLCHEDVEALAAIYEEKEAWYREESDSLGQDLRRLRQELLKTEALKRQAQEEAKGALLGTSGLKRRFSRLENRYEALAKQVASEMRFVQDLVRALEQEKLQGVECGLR

FLT3 (human) = FLT3 (human) (UniProt P36888)
TEK (human) = TEK (human) (UniProt Q02763)
IRAK1 (human) = IRAK1 (human) (UniProt P51617)
BLK (human) = BLK (human) (UniProt P51451)
Sequence of BLK (human) (P51451 whole entry, looked up): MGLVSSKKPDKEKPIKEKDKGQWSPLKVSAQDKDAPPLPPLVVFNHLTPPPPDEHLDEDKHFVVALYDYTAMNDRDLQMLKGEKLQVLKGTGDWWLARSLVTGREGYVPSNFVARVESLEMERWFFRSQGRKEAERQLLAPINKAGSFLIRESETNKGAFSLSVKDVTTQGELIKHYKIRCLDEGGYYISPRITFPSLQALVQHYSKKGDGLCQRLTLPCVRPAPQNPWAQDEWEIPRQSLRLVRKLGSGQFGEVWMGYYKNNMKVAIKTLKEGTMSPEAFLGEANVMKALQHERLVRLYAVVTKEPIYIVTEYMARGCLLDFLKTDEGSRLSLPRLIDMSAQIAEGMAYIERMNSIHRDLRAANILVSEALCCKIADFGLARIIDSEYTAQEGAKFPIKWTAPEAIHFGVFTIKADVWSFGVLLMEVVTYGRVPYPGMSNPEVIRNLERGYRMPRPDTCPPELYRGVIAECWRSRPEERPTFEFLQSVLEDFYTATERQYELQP

GSG2 (human) = GSG2 (human) (UniProt Q8TF76)
CHEK2 (human) = CHEK2 (human) (UniProt O96017)
RPS6KB2 (human) = RPS6KB2 (human) (UniProt Q9UBS0)
LTK (human) = LTK (human) (UniProt P29376)
PDGFRA (human) = PDGFRA (human) (UniProt P16234)
MARK2 (human) = MARK2 (human) (UniProt Q7KZI7)
ROCK2 (human) = ROCK2 (human) (UniProt O75116)
MAPK11 (human) = MAPK11 (human) (UniProt Q15759)
MAP2K1 (human) = MAP2K1 (human) (UniProt Q02750)
CAMK4 (human) = CAMK4 (human) (UniProt Q16566)
Sequence of CAMK4 (human) (Q16566 whole entry, looked up): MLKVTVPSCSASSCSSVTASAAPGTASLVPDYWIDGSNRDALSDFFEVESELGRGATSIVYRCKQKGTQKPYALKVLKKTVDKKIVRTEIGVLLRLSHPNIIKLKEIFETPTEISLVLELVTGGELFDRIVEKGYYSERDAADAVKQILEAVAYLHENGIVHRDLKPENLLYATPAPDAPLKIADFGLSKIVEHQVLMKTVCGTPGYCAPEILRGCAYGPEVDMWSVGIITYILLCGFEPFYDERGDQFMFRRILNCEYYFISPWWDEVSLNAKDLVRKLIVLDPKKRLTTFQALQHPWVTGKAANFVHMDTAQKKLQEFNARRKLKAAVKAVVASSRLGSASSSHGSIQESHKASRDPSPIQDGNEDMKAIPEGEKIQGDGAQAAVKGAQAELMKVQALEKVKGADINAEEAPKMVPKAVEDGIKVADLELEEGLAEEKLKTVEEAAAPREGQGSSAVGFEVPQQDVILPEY

TXK (human) = TXK (human) (UniProt P42681)
Sequence of TXK (human) (P42681 whole entry, looked up): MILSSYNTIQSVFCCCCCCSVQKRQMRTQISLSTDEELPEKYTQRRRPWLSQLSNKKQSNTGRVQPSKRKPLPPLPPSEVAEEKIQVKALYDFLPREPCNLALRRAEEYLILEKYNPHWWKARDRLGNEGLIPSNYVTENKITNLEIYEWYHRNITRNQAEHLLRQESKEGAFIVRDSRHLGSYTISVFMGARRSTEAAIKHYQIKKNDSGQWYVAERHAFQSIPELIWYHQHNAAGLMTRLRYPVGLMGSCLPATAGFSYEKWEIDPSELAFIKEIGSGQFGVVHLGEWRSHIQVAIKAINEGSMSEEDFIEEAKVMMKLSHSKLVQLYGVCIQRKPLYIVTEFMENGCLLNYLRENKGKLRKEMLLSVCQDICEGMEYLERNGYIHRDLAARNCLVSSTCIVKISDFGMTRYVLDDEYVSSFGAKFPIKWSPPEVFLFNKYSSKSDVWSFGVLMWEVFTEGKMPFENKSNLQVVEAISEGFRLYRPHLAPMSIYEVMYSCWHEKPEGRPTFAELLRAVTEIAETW

PNCK (human) = PNCK (human) (UniProt Q6P2M8)
EPHA3 (human) = EPHA3 (human) (UniProt P29320)
EPHA2 (human) = EPHA2 (human) (UniProt P29317)
FGFR3 (human) = FGFR3 (human) (UniProt P22607)
PDGFRB (human) = PDGFRB (human) (UniProt P09619)
MLTK (human) = MLTK (human) (UniProt Q9NYL2)
MAP3K14 (human) = MAP3K14 (human) (UniProt Q99558)
Sequence of MAP3K14 (human) (Q99558 whole entry, looked up): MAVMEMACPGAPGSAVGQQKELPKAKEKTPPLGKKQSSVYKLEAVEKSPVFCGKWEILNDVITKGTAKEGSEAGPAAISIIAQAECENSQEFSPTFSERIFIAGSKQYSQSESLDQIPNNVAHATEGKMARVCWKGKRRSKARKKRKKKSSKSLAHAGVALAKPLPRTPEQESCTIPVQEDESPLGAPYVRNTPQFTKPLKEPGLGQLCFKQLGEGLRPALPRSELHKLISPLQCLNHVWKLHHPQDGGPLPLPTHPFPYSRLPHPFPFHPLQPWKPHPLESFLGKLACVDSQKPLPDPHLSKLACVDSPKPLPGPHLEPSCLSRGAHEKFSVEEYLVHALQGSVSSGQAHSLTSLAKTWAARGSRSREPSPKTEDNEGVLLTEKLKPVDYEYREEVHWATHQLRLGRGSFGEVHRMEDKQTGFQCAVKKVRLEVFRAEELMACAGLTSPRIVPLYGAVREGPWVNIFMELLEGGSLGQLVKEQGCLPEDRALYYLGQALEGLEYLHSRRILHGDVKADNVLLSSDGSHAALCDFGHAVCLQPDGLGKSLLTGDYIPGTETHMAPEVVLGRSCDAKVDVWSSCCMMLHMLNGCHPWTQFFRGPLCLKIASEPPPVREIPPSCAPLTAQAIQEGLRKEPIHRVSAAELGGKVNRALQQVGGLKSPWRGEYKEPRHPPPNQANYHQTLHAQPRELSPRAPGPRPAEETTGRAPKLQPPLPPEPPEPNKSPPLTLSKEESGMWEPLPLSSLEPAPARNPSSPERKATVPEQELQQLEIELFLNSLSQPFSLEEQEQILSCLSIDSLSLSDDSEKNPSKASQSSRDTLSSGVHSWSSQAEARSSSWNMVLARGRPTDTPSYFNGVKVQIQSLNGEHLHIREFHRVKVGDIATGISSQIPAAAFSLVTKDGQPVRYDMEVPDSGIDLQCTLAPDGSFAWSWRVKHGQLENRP

EPHA4 (human) = EPHA4 (human) (UniProt P54764)
PRKX (human) = PRKX (human) (UniProt P51817)
PAK3 (human) = PAK3 (human) (UniProt O75914)

Work on `c1ccc(-c2cnc(Nc3ccc(OCCN4CCCC4)cc3)s2)cc1` yielded a residual activity (CAMK2G (human)) of 66.9%, a residual activity (BRSK1 (human)) of 97.6% and a residual activity (BMX (human)) of 84.5%. For the same compound, the residual activity (EPHB2 (human)) was 75.6%, the residual activity (FYN (human)) was 81.1% and the residual activity (PRKCE (human)) was 90.5%. For the same compound, the residual activity (AURKA (human)) was 95.3%, the residual activity (ABL2 (human)) was 37.2% and the residual activity (AURKB (human)) was 75.8%. The residual activity (DSTYK (human)) was 90.8%, the residual activity (CDK1 CCNA2 (human)) was 95.2% and the residual activity (DYRK3 (human)) was 106%. The residual activity (PRKG1 (human)) was 96.7% and 100%, the residual activity (PAK1 (human)) was 97% and the residual activity (MST4 (human)) was 101%. The residual activity (MINK1 (human)) was 38.7%, the residual activity (DAPK3 (human)) was 105% and the residual activity (FLT3 (human)) was 3.1%. The residual activity (TEK (human)) was 102%, the residual activity (IRAK1 (human)) was 109% and the residual activity (BLK (human)) was 92%. The residual activity (GSG2 (human)) was 106%, the residual activity (CHEK2 (human)) was 99.4% and the residual activity (RPS6KB2 (human)) was 92.7%. It also gave a residual activity (LTK (human)) of 93.8%, a residual activity (PDGFRA (human)) of 57.4% and a residual activity (MARK2 (human)) of 88%. The residual activity (ROCK2 (human)) was 91.7%, the residual activity (MAPK11 (human)) was 94.7% and the residual activity (MAP2K1 (human)) was 96.9%. For the same compound, the residual activity (CAMK4 (human)) was 97.2%, the residual activity (TXK (human)) was 91.1% and the residual activity (PNCK (human)) was 99.8%. It also gave a residual activity (EPHA3 (human)) of 98.7%, a residual activity (EPHA2 (human)) of 108% and a residual activity (FGFR3 (human)) of 98.2%. The residual activity (PDGFRB (human)) was 28.5%, the residual activity (MLTK (human)) was 25.9% and the residual activity (MAP3K14 (human)) was 81.9%. It also gave a residual activity (EPHA4 (human)) of 101%, a residual activity (PRKX (human)) of 101% and a residual activity (PAK3 (human)) of 99.1%.

`O=c1cc(N2CCOCC2)oc2c(-c3ccccc3)cccc12` gave a residual activity (CAMK2G (human)) of 90.5%, a residual activity (BRSK1 (human)) of 103% and a residual activity (BMX (human)) of 96.9%. It also gave a residual activity (EPHB2 (human)) of 99.8%, a residual activity (FYN (human)) of 100% and a residual activity (PRKCE (human)) of 102%. It also gave a residual activity (AURKA (human)) of 99%, a residual activity (ABL2 (human)) of 98.1% and a residual activity (AURKB (human)) of 99.6%. The residual activity (DSTYK (human)) was 113%, the residual activity (CDK1 CCNA2 (human)) was 92% and the residual activity (DYRK3 (human)) was 100%. The residual activity (PRKG1 (human)) was 104% and 105%, the residual activity (PAK1 (human)) was 97.8% and the residual activity (MST4 (human)) was 97.2%. For the same compound, the residual activity (MINK1 (human)) was 94.6%, the residual activity (DAPK3 (human)) was 96.5% and the residual activity (FLT3 (human)) was 95.6%. For the same compound, the residual activity (TEK (human)) was 89.2%, the residual activity (IRAK1 (human)) was 104% and the residual activity (BLK (human)) was 120%. For the same compound, the residual activity (GSG2 (human)) was 93.4%, the residual activity (CHEK2 (human)) was 93.7% and the residual activity (RPS6KB2 (human)) was 94.9%. For the same compound, the residual activity (LTK (human)) was 87.8%, the residual activity (PDGFRA (human)) was 94.6% and the residual activity (MARK2 (human)) was 79.2%. It also gave a residual activity (ROCK2 (human)) of 95.2%, a residual activity (MAPK11 (human)) of 96.2% and a residual activity (MAP2K1 (human)) of 88.8%. For the same compound, the residual activity (CAMK4 (human)) was 104%, the residual activity (TXK (human)) was 93.6% and the residual activity (PNCK (human)) was 98.4%. It also gave a residual activity (EPHA3 (human)) of 98.7%, a residual activity (EPHA2 (human)) of 104% and a residual activity (FGFR3 (human)) of 95.9%. The residual activity (PDGFRB (human)) was 102%, the residual activity (MLTK (human)) was 94.2% and the residual activity (MAP3K14 (human)) was 101%. The residual activity (EPHA4 (human)) was 99.2%, the residual activity (PRKX (human)) was 101% and the residual activity (PAK3 (human)) was 104%.

Work on `CCCCc1c(-c2ccc(O)cc2)[nH]c2nccnc12` yielded a residual activity (CAMK2G (human)) of 101%, a residual activity (BRSK1 (human)) of 89.1% and a residual activity (BMX (human)) of 86.8%. For the same compound, the residual activity (EPHB2 (human)) was 92.3%, the residual activity (FYN (human)) was 62.1% and the residual activity (PRKCE (human)) was 107%. It also gave a residual activity (AURKA (human)) of 24.5%, a residual activity (ABL2 (human)) of 64.9% and a residual activity (AURKB (human)) of 66.9%. It also gave a residual activity (DSTYK (human)) of 88.9%, a residual activity (CDK1 CCNA2 (human)) of 60.3% and a residual activity (DYRK3 (human)) of 90.9%. The residual activity (PRKG1 (human)) was 88.8% and 94.5%, the residual activity (PAK1 (human)) was 81.4% and the residual activity (MST4 (human)) was 79.1%. The residual activity (MINK1 (human)) was 82%, the residual activity (DAPK3 (human)) was 94.9% and the residual activity (FLT3 (human)) was 45.3%. It also gave a residual activity (TEK (human)) of 97%, a residual activity (IRAK1 (human)) of 63.4% and a residual activity (BLK (human)) of 85%. For the same compound, the residual activity (GSG2 (human)) was 65.3%, the residual activity (CHEK2 (human)) was 61.1% and the residual activity (RPS6KB2 (human)) was 102%. For the same compound, the residual activity (LTK (human)) was 84.1%, the residual activity (PDGFRA (human)) was 95.1% and the residual activity (MARK2 (human)) was 76.1%. It also gave a residual activity (ROCK2 (human)) of 97.5%, a residual activity (MAPK11 (human)) of 103% and a residual activity (MAP2K1 (human)) of 94.8%. For the same compound, the residual activity (CAMK4 (human)) was 93.9%, the residual activity (TXK (human)) was 65% and the residual activity (PNCK (human)) was 109%. The residual activity (EPHA3 (human)) was 95%, the residual activity (EPHA2 (human)) was 81.7% and the residual activity (FGFR3 (human)) was 80%. The residual activity (PDGFRB (human)) was 91.4%, the residual activity (MLTK (human)) was 71% and the residual activity (MAP3K14 (human)) was 95.4%. For the same compound, the residual activity (EPHA4 (human)) was 87.5%, the residual activity (PRKX (human)) was 110% and the residual activity (PAK3 (human)) was 97.7%.

Work on `CCc1nc(-c2ccc(OC)cc2)[nH]c1-c1ccncc1` yielded a residual activity (CAMK2G (human)) of 106%, a residual activity (BRSK1 (human)) of 101% and a residual activity (BMX (human)) of 93.4%. It also gave a residual activity (EPHB2 (human)) of 111%, a residual activity (FYN (human)) of 95.1% and a residual activity (PRKCE (human)) of 101%. It also gave a residual activity (AURKA (human)) of 93.7%, a residual activity (ABL2 (human)) of 98.3% and a residual activity (AURKB (human)) of 101%. It also gave a residual activity (DSTYK (human)) of 99.6%, a residual activity (CDK1 CCNA2 (human)) of 91.8% and a residual activity (DYRK3 (human)) of 95.5%. The residual activity (PRKG1 (human)) was 81% and 91.2%, the residual activity (PAK1 (human)) was 99.3% and the residual activity (MST4 (human)) was 106%. For the same compound, the residual activity (MINK1 (human)) was 103%, the residual activity (DAPK3 (human)) was 95.8% and the residual activity (FLT3 (human)) was 91.4%. The residual activity (TEK (human)) was 99.1%, the residual activity (IRAK1 (human)) was 128% and the residual activity (BLK (human)) was 105%. It also gave a residual activity (GSG2 (human)) of 55.9%, a residual activity (CHEK2 (human)) of 102% and a residual activity (RPS6KB2 (human)) of 95.6%. The residual activity (LTK (human)) was 106%, the residual activity (PDGFRA (human)) was 96.3% and the residual activity (MARK2 (human)) was 99.4%. For the same compound, the residual activity (ROCK2 (human)) was 101%, the residual activity (MAPK11 (human)) was 104% and the residual activity (MAP2K1 (human)) was 97.8%. The residual activity (CAMK4 (human)) was 97.5%, the residual activity (TXK (human)) was 100% and the residual activity (PNCK (human)) was 102%. It also gave a residual activity (EPHA3 (human)) of 100%, a residual activity (EPHA2 (human)) of 102% and a residual activity (FGFR3 (human)) of 99.8%. It also gave a residual activity (PDGFRB (human)) of 105%, a residual activity (MLTK (human)) of 106% and a residual activity (MAP3K14 (human)) of 118%. For the same compound, the residual activity (EPHA4 (human)) was 105%, the residual activity (PRKX (human)) was 93.3% and the residual activity (PAK3 (human)) was 103%.
